# Test results reported in patent US5846988A, “Thiazolidine-4-carboxylic acid derivatives as cytoprotective agents” (Alcon Laboratories, Inc., priority 1997, dated 1998).
# Where two headings read alike, the source gives them in different places.
# Tests used:
# [1] = test system: excised pigmented rabbit lenses; test: Inhibition of lens changes caused by oxidative damage (diquat-exposed excised pigmented rabbit lenses; GSH loss and MDA formation); assay type: cell-based; settings: Oryctolagus cuniculus, 1 mM test compound, 1 mM diquat, 3 h at 37° C.
# Method: (§1) Evaluation of Cytoprotective Ability
# Inhibition of lens changes caused by oxidative damage by representative compounds of the present invention as compared with the cysteine prodrug, 2-oxo-4-thiazolidine carboxylic acid, (Sigma Chemical Company, St Louis Mo.) is shown in Table 2 below. The cytoprotective effect was measured using excised pigmented rabbit lenses exposed to diquat using the method of Bhuyan (Free Radical Biology & Medicine, volume 12, pages 251-261, 1992). Normal lenses were extracted from the eyes immediately after sacrificing the pigmented rabbits. The lens were incubated in modified Krebs-Ringers bicarbonate medium containing 1 mM diquat dibromide monohydrate (Imperial Chemical Industries Ltd., London) and the test compound (1 mM). A non-test drug containing group was used as control. The lenses were incubated for 3 h at 37° C. in a shaking water bath. At the end of the incubation period each lens was removed and homogenated. Glutathione (GSH) and maliondialdehyde (MDA) levels were established by treating the supernatant with trichloracetic acid to precipitate proteins, and then using aliquots of the TCA supernatant to determine glutathione and MDA levels according to standard procedures. Degree of protection was measured as inhibition of GSH loss and inhibition of malondialdehyde formation.
# bovine retinal pieces = test: Inhibition of lipid peroxide formation (TBARS) in hypoxic/reoxygenated bovine retinal pieces; assay type: cell-based; settings: Bos taurus, hypoxia 1 h, test agent added after 50 min, reoxygenation 1 h; for inhibition at 100 µM: 0.1 mM, read-out: % Inhibition of TBARS Production (0.1 mM); for IC50: read-out: IC50 (inhibition of TBARS production)
# Method: as §1
# Inhibition of lipid peroxide formation by representative compounds of the present invention as compared with the cysteine prodrug, 2-oxo-4-thiazolidine carboxylic acid, (Sigma Chemical Company, St Louis Mo.) is shown in Table 1 below. The cytoprotective effect of the compound was measured using bovine retinal pieces. Retinal tissues were incubated in hypoxic media for 1 h. After 50 min. of hypoxia the test agents were added to the media to allow 10 min. for the drug to diffuse into the tissue prior to reoxygenation. The vehicle by itself, was added to the non-drug group. Following the incubation period, tissue was reoxygenated for 1 h. Lipid peroxidation was assessed by the formation of thiobarbituric acid reacting substances (TBARS). The tissues were homogenized and added to the trichloroacetic acid-thiobarbituric acid reagent and heated in the presence of BHT. The homogenate was filtered and the absorbance of the supernant was measured spectrophotometrically. A double derivative technique was used to calculate the concentration of TBARS present in each sample. Quantiation was based on a molar extinction coefficient of 1.56×10^5.
# [2] = read-out: % Inhibition GSH loss
# [3] = read-out: % Inhibition MDA formation
Compound,"inhibition at 1000 µM [1, 2]","inhibition at 1000 µM [1, 3]",inhibition at 100 µM (bovine retinal pieces),IC50 (bovine retinal pieces)
"O=C1NC(C(=O)O)CS1 (stereo not drawn) [2-oxo-4-thiazolidine carboxylic acid, reference compound]",9.4%,28%,-38%,–
"CC(C)(C)c1cc(C2N[C@H](C(=O)O)CS2)cc(C(C)(C)C)c1O (stereo partly drawn) [Example 1, (4R)-2-(3,5-di-tert-butyl-4-hydroxyphenyl)-4-thiazolidine carboxylic acid]",40%,76%,95%,50 nM
"Cc1c(C)c2c(c(C)c1O)CCC(C)(C1N[C@H](C(=O)O)CS1)O2 (stereo partly drawn) [Example 2, (4R)-2-(6-hydroxy-2,5,7,8-tetramethyl-3,4-dihydro-2H-benzo[1,2-b]pyran-2-yl)-4-thiazolidine carboxylic acid]",–,–,90%,3000 nM
